Where “and” joins values, the source holds several entries; their conditions need not be identical. Identical values can stand only once.
How the values were obtained:
[1] = system: TNB (trinitrobenzenesulfonic acid)-induced ulcerative colitis; assay: Rats with TNB-induced ulcerative colitis, macroscopic and microscopic examination of intestine, colon and cecum; format: in vivo, rat; parameters: key to Overall degree of inflammation / Mucosal inflammation and ulceration / Submucosal inflammation / Full thickness inflammation: − = No inflammation (normal); ± = Very minimal mucosal inflammation; + = Mild; +2 = Moderate; +3 = Severe; settings: for Full thickness inflammation / Mucosal inflammation and ulceration / Overall degree of inflammation / Submucosal inflammation: one rat per row; for activity against intestinal bowel disease: compared to the known compound 5ASA
Protocol: Rats with TNB (trinitrobenzenesulfonic acid)-induced ulcerative colitis were used as an animal model. 28 rats were randomly grouped (A, B, C1, C2, D1 and D2). Group A is used as positive control and each of the other three groups received a predetermined dose of compounds under testing (see Table 3). Animals were fasted for one night before taking the TNB solution. All animals received a solution (0.25 ml) of TNB in methylcelullose solution (50% methylcellulose in absolute ethanol) containing 20 mg of TNB. The TNB solution was administered by intracolonic administration using a syringe and rubber canula. The canula was inserted into the lumen of the colon via the anus. The cannula was advanced so that its tip was 8 cm from the anus. […] Group A took 0.5 ml of the suspension containing 2.5 mg of methylcellulose solution twice daily. • 2. […] The treatments were given for eight days, and on the 9th day the animals were sacrificed and opened along their abdomen for evaluation. The animals were subjected to the following testing • 1. Physical testing, as looking at the weight, […], general health, etc. • 2. Looking at the intestine before opening, colouration, thickness, etc. 3. Dissecting the intestine the colon and the cecum and examining them macroscopically and microscopically.

[2] = upon oral administration; cited from earlier work
[3] = Group B: 5 mg 5ASA orally twice daily for eight days
[4] = Group D-1: 12 mg compound 5 orally twice daily for eight days
[5] = Group D-2: 18 mg compound 5 orally twice daily for eight days
[6] = Group C-1: 18 mg compound 9 orally twice daily for eight days
[7] = Group C-2: 28 mg compound 9 orally twice daily for eight days

Nc1ccc(O)c(C(=O)O)c1 [5ASA, 5-aminosalicylic acid, reference compound]
Full thickness inflammation [1, 3]: + | Mucosal inflammation and ulceration [1, 3]: + | Overall degree of inflammation [1, 3]: +2 (4×) and +3 and +1 | Submucosal inflammation [1, 3]: +

Nc1ccc(-c2nc3cc(CC(=O)O)ccc3o2)cc1 [compound 5, 4-aminophenylbenzoxazole-5-acetic acid]
Full thickness inflammation [1, 4]: + (3×) and − (2×) | Mucosal inflammation and ulceration [1, 4]: + (4×) and − | Overall degree of inflammation [1, 4]: +1 (3×) and ± and − | Submucosal inflammation [1, 4]: + (3×) and − (2×) | Full thickness inflammation [1, 5]: − | Mucosal inflammation and ulceration [1, 5]: + | Overall degree of inflammation [1, 5]: +1 | Submucosal inflammation [1, 5]: + | activity against intestinal bowel disease [1]: significantly higher activity

O=C(O)Cc1ccc2oc(-c3ccc(N=Nc4ccc(O)c(C(=O)O)c4)cc3)nc2c1 [compound 9, 2-Hydroxy-5-[4-(benzoxazol-2-yl-5-acetic acid)phenylazo]benzoic acid]
Full thickness inflammation [1, 6]: − | Mucosal inflammation and ulceration [1, 6]: − and + (5×) | Overall degree of inflammation [1, 6]: − and ± (3×) and +1 (2×) | Submucosal inflammation [1, 6]: − (3×) and ± and + (2×) | Full thickness inflammation [1, 7]: − | Mucosal inflammation and ulceration [1, 7]: + | Overall degree of inflammation [1, 7]: ± (2×) and +1 | Submucosal inflammation [1, 7]: ± (2×) and + | activity against intestinal bowel disease [1]: significantly higher activity

O=C(O)c1cc(N=Nc2ccc(S(=O)(=O)Nc3ccccn3)cc2)ccc1O [SS, 2-Hydroxy-5-[4-(2-pyridylsulfamoyl)phenylazo]benzoic acid]
fraction of a given dose absorbed from the small intestine [2]: about one-third

From patent publication US20070043003A1, “Novel compounds for the prophylaxis and treatment of inflammatory bowel diseases” (Hikma Pharmaceuticals Co., Ltd., priority 2005, published 2007)
